Patent US12077503B2, “Substituted cyclic amides and their use as herbicides” (FMC CORPORATION, priority 2015, dated 2024)

What was measured:
Type in all cases: in vivo
[1] = system: barnyardgrass (Echinochloa crus-galli); assay: Test G Post-Emergence Protocol; conditions: Echinochloa crus-galli, post-emergence, 312 h; for pest or weed control at 15.625 g/ha: 15.625 g ai/ha, evaluated after 13 days (100=total damage to plant; 0=no damage to plant), read-out: Barnyardgrass damage rating; for pest or weed control at 62.5 g/ha: 62.5 g ai/ha, read-out: Barnyardgrass damage rating (100=total damage to plant; 0=no damage to plant); for pest or weed control at 62.5 g/ha / pest or weed control at 250 g/ha: evaluated after 13 days; for pest or weed control at 250 g/ha: 250 g ai/ha, read-out: damage to plant, Barnyardgrass (100=total damage to plant; 0=no damage to plant)
Summary of the method: (§1)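 Eight days post-sowing, plants received a spray of test compound (acetone/water 50:50, 0.5% Tween 20) at 15.625, 62.5 or 250 g/ha. Glasshouse regime thereafter: 24/16 °C, 14 h light, 65% humidity. Assessment after 13 days on a 0–100 damage scale.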

[2] = system: redroot pigweed (Amaranthus retroflexus); assay: Test G Post-Emergence Protocol; conditions: Amaranthus retroflexus, post-emergence, 312 h; for pest or weed control at 15.625 g/ha: 15.625 g ai/ha, evaluated after 13 days (100=total damage to plant; 0=no damage to plant), read-out: Pigweed, Redroot damage rating; for pest or weed control at 62.5 g/ha: 62.5 g ai/ha, read-out: Pigweed, Redroot damage rating (100=total damage to plant; 0=no damage to plant); for pest or weed control at 62.5 g/ha / pest or weed control at 250 g/ha: evaluated after 13 days; for pest or weed control at 250 g/ha: 250 g ai/ha, read-out: damage to plant, Pigweed, Redroot (100=total damage to plant; 0=no damage to plant)
Summary of the method: as §1

[3] = system: ivy-leaved morning glory (Ipomoea hederacea); assay: Test G Post-Emergence Protocol; conditions: Ipomoea, post-emergence, 312 h; for pest or weed control at 15.625 g/ha: 15.625 g ai/ha, evaluated after 13 days (100=total damage to plant; 0=no damage to plant), read-out: Morningglory, Ivy-leaved damage rating; for pest or weed control at 62.5 g/ha: 62.5 g ai/ha, read-out: Morningglory, Ivy-leaved damage rating (100=total damage to plant; 0=no damage to plant); for pest or weed control at 62.5 g/ha / pest or weed control at 250 g/ha: evaluated after 13 days; for pest or weed control at 250 g/ha: 250 g ai/ha, read-out: damage to plant, Morningglory, Ivy-leaved (100=total damage to plant; 0=no damage to plant)
Summary of the method: as §1

corn (Zea mays) [4] = assay: Test G Post-Emergence Protocol; conditions: Zea mays, post-emergence, 312 h; for plant injury at 15.625 g/ha: 15.625 g ai/ha, evaluated after 13 days (100=total damage to plant; 0=no damage to plant), read-out: Corn damage rating; for plant injury at 62.5 g/ha: 62.5 g ai/ha, read-out: Corn damage rating (100=total damage to plant; 0=no damage to plant); for plant injury at 62.5 g/ha / plant injury at 250 g/ha: evaluated after 13 days; for plant injury at 250 g/ha: 250 g ai/ha, read-out: damage to plant, Corn (100=total damage to plant; 0=no damage to plant)
Summary of the method: as §1

[5] = system: velvetleaf (Abutilon theophrasti); assay: Test G Post-Emergence Protocol; conditions: Abutilon theophrasti, post-emergence, 312 h; for pest or weed control at 15.625 g/ha: 15.625 g ai/ha, evaluated after 13 days (100=total damage to plant; 0=no damage to plant), read-out: Velvetleaf damage rating; for pest or weed control at 62.5 g/ha: 62.5 g ai/ha, read-out: Velvetleaf damage rating (100=total damage to plant; 0=no damage to plant); for pest or weed control at 62.5 g/ha / pest or weed control at 250 g/ha: evaluated after 13 days; for pest or weed control at 250 g/ha: 250 g ai/ha, read-out: damage to plant, Velvetleaf (100=total damage to plant; 0=no damage to plant)
Summary of the method: as §1

[6] = system: giant foxtail (Setaria faberi); assay: Test G Post-Emergence Protocol; conditions: Setaria faberi, post-emergence, 312 h; for pest or weed control at 15.625 g/ha: 15.625 g ai/ha, evaluated after 13 days (100=total damage to plant; 0=no damage to plant), read-out: Foxtail, Giant damage rating; for pest or weed control at 62.5 g/ha: 62.5 g ai/ha, read-out: Foxtail, Giant damage rating (100=total damage to plant; 0=no damage to plant); for pest or weed control at 62.5 g/ha / pest or weed control at 250 g/ha: evaluated after 13 days; for pest or weed control at 250 g/ha: 250 g ai/ha, read-out: damage to plant, Foxtail, Giant (100=total damage to plant; 0=no damage to plant)
Summary of the method: as §1

[7] = system: barnyardgrass (Echinochloa crus-galli); assay: Test G Pre-Emergence Protocol; conditions: Echinochloa crus-galli, pre-emergence, 312 h, evaluated after 13 days; for pest or weed control at 15.625 g/ha: 15.625 g ai/ha, read-out: Barnyard grass damage rating (100=total damage to plant; 0=no damage to plant); for pest or weed control at 62.5 g/ha: 62.5 g ai/ha, 100=total damage to plant, 0=no damage to plant, read-out: plant damage rating, Barnyardgrass; for pest or weed control at 250 g/ha: 250 g ai/ha, read-out: Barnyardgrass damage rating (100=total damage to plant; 0=no damage to plant)
Summary of the method: (§2)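 Pots of seeds in standard soil were grown for one day in a glasshouse (24/16 °C day/night, 14 h light, 65% humidity), then sprayed with compound in acetone/water 50:50 with 0.5% Tween 20 at 15.625, 62.5 or 250 g/ha. Damage was scored after 13 days on a 0 (none) to 100 (total) scale.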

[8] = system: redroot pigweed (Amaranthus retroflexus); assay: Test G Pre-Emergence Protocol; conditions: Amaranthus retroflexus, pre-emergence, 312 h, evaluated after 13 days; for pest or weed control at 15.625 g/ha: 15.625 g ai/ha; for pest or weed control at 15.625 g/ha / pest or weed control at 250 g/ha: read-out: Pigweed, Redroot damage rating (100=total damage to plant; 0=no damage to plant); for pest or weed control at 62.5 g/ha: 62.5 g ai/ha, 100=total damage to plant, 0=no damage to plant, read-out: plant damage rating, Pigweed, Redroot; for pest or weed control at 250 g/ha: 250 g ai/ha
Summary of the method: as §2

[9] = system: ivy-leaved morning glory (Ipomoea hederacea); assay: Test G Pre-Emergence Protocol; conditions: Ipomoea, pre-emergence, 312 h, evaluated after 13 days; for pest or weed control at 15.625 g/ha: 15.625 g ai/ha, read-out: Morning-glory, Ivy-leaved damage rating (100=total damage to plant; 0=no damage to plant); for pest or weed control at 62.5 g/ha: 62.5 g ai/ha, 100=total damage to plant, 0=no damage to plant, read-out: plant damage rating, Morningglory, Ivy-leaved; for pest or weed control at 250 g/ha: 250 g ai/ha, read-out: Morningglory, Ivy-leaved damage rating (100=total damage to plant; 0=no damage to plant)
Summary of the method: as §2

corn (Zea mays) [10] = assay: Test G Pre-Emergence Protocol; conditions: Zea mays, pre-emergence, 312 h, evaluated after 13 days; for plant injury at 15.625 g/ha: 15.625 g ai/ha; for plant injury at 15.625 g/ha / plant injury at 250 g/ha: read-out: Corn damage rating (100=total damage to plant; 0=no damage to plant); for plant injury at 62.5 g/ha: 62.5 g ai/ha, 100=total damage to plant, 0=no damage to plant, read-out: plant damage rating, Corn; for plant injury at 250 g/ha: 250 g ai/ha
Summary of the method: as §2

[11] = system: velvetleaf (Abutilon theophrasti); assay: Test G Pre-Emergence Protocol; conditions: Abutilon theophrasti, pre-emergence, 312 h, evaluated after 13 days; for pest or weed control at 15.625 g/ha: 15.625 g ai/ha; for pest or weed control at 15.625 g/ha / pest or weed control at 250 g/ha: read-out: Velvetleaf damage rating (100=total damage to plant; 0=no damage to plant); for pest or weed control at 62.5 g/ha: 62.5 g ai/ha, 100=total damage to plant, 0=no damage to plant, read-out: plant damage rating, Velvetleaf; for pest or weed control at 250 g/ha: 250 g ai/ha
Summary of the method: as §2

[12] = system: giant foxtail (Setaria faberi); assay: Test G Pre-Emergence Protocol; conditions: Setaria faberi, pre-emergence, 312 h, evaluated after 13 days; for pest or weed control at 15.625 g/ha: 15.625 g ai/ha; for pest or weed control at 15.625 g/ha / pest or weed control at 250 g/ha: read-out: Foxtail, Giant damage rating (100=total damage to plant; 0=no damage to plant); for pest or weed control at 62.5 g/ha: 62.5 g ai/ha, 100=total damage to plant, 0=no damage to plant, read-out: plant damage rating, Foxtail, Giant; for pest or weed control at 250 g/ha: 250 g ai/ha
Summary of the method: as §2

| SMILES | pest or weed control at 15.625 g/ha [1] [%] | pest or weed control at 62.5 g/ha [1] [%] | pest or weed control at 250 g/ha [1] [%] | pest or weed control at 15.625 g/ha [2] [%] | pest or weed control at 62.5 g/ha [2] [%] | pest or weed control at 250 g/ha [2] [%] | pest or weed control at 15.625 g/ha [3] [%] | pest or weed control at 62.5 g/ha [3] [%] | pest or weed control at 250 g/ha [3] [%] | plant injury at 15.625 g/ha (corn (Zea mays) [4]) [%] | plant injury at 62.5 g/ha (corn (Zea mays) [4]) [%] | plant injury at 250 g/ha (corn (Zea mays) [4]) [%] | pest or weed control at 15.625 g/ha [5] [%] | pest or weed control at 62.5 g/ha [5] [%] | pest or weed control at 250 g/ha [5] [%] | pest or weed control at 15.625 g/ha [6] [%] | pest or weed control at 62.5 g/ha [6] [%] | pest or weed control at 250 g/ha [6] [%] | pest or weed control at 15.625 g/ha [7] [%] | pest or weed control at 62.5 g/ha [7] [%] | further results |
| --- | --- | --- | --- | --- | --- | --- | --- | --- | --- | --- | --- | --- | --- | --- | --- | --- | --- | --- | --- | --- | --- |
| CN1C[C@@H](c2cncc(F)c2)[C@H](C(=O)Nc2cccc(F)c2F)C1=O (racemic) [Compound 1482] | 30 | 30 | 60 | 0 | 0 | 0 | 0 | 0 | 0 | 20 | 30 | 30 | 0 | 0 | 10 | 30 | 30 | 60 | 10 | 30 | pest or weed control at 250 g/ha [7]: 80%; pest or weed control at 15.625 g/ha [8]: 0%; pest or weed control at 62.5 g/ha [8]: 0%; pest or weed control at 250 g/ha [8]: 10%; pest or weed control at 15.625 g/ha [9]: 0%; pest or weed control at 62.5 g/ha [9]: 0%; pest or weed control at 250 g/ha [9]: 10%; plant injury at 15.625 g/ha (corn (Zea mays) [10]): 30%; plant injury at 62.5 g/ha (corn (Zea mays) [10]): 40%; plant injury at 250 g/ha (corn (Zea mays) [10]): 30%; pest or weed control at 15.625 g/ha [11]: 0%; pest or weed control at 62.5 g/ha [11]: 0%; pest or weed control at 250 g/ha [11]: 10%; pest or weed control at 15.625 g/ha [12]: 20%; pest or weed control at 62.5 g/ha [12]: 60%; pest or weed control at 250 g/ha [12]: 90% |
| CN1C[C@@H](c2cnc(Cl)c(F)c2)[C@H](C(=O)Nc2cccc(F)c2F)C1=O (racemic) [Compound 1486] | 40 | 60 | 70 | 0 | 0 | 30 | 0 | 0 | 0 | 10 | 10 | 60 | 0 | 0 | 10 | 60 | 60 | 70 | 30 | 60 | pest or weed control at 250 g/ha [7]: 90%; pest or weed control at 15.625 g/ha [8]: 0%; pest or weed control at 62.5 g/ha [8]: 0%; pest or weed control at 250 g/ha [8]: 60%; pest or weed control at 15.625 g/ha [9]: 0%; pest or weed control at 62.5 g/ha [9]: 0%; pest or weed control at 250 g/ha [9]: 0%; plant injury at 15.625 g/ha (corn (Zea mays) [10]): 10%; plant injury at 62.5 g/ha (corn (Zea mays) [10]): 20%; plant injury at 250 g/ha (corn (Zea mays) [10]): 40%; pest or weed control at 15.625 g/ha [11]: 0%; pest or weed control at 62.5 g/ha [11]: 0%; pest or weed control at 250 g/ha [11]: 10%; pest or weed control at 15.625 g/ha [12]: 40%; pest or weed control at 62.5 g/ha [12]: 90%; pest or weed control at 250 g/ha [12]: 90% |
